Legend:
human MER = molecular target: T1, human MER (Homo sapiens, UniProt Q12866); test: HTRF KinEASE-TK biochemical potency assay, MER; conditions: 1 nM MER, 700 μM ATP, 800 nM TK Substrate-biotin
T1 construct: purchased Invitrogen
T1 sequence (Q12866 21-999): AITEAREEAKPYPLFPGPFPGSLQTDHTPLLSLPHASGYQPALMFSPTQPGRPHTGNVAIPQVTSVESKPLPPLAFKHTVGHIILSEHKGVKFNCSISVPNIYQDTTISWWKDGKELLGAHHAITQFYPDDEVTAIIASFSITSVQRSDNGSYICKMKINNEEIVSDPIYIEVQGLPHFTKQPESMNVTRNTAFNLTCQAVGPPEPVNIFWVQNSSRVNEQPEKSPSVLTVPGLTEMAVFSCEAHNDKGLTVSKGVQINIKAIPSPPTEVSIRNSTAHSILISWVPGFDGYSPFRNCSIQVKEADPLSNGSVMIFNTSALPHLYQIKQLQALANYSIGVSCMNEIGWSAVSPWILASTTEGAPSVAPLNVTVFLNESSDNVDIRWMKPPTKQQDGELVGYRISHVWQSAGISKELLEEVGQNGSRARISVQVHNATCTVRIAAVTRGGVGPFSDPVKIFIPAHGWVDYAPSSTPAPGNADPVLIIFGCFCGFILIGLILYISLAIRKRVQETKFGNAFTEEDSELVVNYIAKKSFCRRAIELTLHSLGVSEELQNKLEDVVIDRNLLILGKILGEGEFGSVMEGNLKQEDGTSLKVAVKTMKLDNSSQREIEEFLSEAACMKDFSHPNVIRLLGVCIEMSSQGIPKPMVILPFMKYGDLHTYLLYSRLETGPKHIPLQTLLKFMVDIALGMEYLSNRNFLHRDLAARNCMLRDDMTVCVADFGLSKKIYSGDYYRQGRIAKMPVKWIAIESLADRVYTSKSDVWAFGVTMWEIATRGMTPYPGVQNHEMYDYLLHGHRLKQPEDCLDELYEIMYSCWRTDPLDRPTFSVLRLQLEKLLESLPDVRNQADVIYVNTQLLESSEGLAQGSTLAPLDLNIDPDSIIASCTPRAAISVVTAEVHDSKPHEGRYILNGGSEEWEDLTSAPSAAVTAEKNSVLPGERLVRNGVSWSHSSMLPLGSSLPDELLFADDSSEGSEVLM
Outline: (§1)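 Recombinant human kinase preincubated 1 h at RT with compound, then reacted 2 h at RT with final 5 nM AXL or 1 nM TYRO3/MER, 800 nM TK Substrate-biotin and 700 μM ATP in HEPES pH 7.4, 10 mM MgCl2, 1% DMSO. Phosphorylation read by HTRF 665/620 ratio, expressed as percent activity.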

human TYRO3 = molecular target: T2, human TYRO3 (Homo sapiens, UniProt Q06418); test: HTRF KinEASE-TK biochemical potency assay, TYRO3; conditions: 1 nM TYRO3, 700 μM ATP, 800 nM TK Substrate-biotin
T2 construct: purchased Invitrogen
T2 sequence (Q06418 41-890): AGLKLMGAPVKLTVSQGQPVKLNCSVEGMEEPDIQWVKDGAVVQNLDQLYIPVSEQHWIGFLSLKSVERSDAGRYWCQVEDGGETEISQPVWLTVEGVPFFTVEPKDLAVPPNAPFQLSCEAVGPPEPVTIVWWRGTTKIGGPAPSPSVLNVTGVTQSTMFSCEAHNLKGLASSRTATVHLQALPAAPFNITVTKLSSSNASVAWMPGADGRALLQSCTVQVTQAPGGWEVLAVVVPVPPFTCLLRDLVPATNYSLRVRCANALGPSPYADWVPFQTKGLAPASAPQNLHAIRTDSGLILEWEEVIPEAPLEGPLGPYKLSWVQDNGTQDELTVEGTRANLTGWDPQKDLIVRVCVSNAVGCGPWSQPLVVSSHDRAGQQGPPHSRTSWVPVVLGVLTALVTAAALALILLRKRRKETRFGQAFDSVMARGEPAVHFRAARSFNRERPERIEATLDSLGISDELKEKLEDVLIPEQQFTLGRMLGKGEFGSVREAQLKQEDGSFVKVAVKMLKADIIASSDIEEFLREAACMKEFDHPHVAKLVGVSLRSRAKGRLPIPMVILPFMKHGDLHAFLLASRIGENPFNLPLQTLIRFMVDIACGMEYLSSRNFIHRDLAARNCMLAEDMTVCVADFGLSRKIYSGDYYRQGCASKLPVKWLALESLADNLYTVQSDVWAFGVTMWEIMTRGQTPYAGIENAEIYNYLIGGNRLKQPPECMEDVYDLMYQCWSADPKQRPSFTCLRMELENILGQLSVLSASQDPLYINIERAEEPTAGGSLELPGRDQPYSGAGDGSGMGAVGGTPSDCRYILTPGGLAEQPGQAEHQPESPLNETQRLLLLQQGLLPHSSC
Outline: as §1

SMILES | IC50 (human MER) [nM] | IC50 (human TYRO3) [nM]
NC(=O)c1ccc(-c2n[nH]c3ncc(-c4ccc5c(c4)CCC(N4CCCC4)CC5)cc23)cc1 (stereo not drawn) [Example 78, 4-(5-(7-(Pyrrolidin-1-yl)-6,7,8,9-tetrahydro-5H-benzo[7]annulen-2-yl)-1H-pyrazolo[3,4-b]pyridin-3-yl)benzamide] | 100 to 1000 | < 100
Cc1cc(-c2n[nH]c3ncc(-c4ccc5c(c4)CCC(N4CCCC4)CC5)cc23)cc(F)c1C(N)=O (stereo not drawn) [Example 79, 2-Fluoro-6-methyl-4-(5-(7-(pyrrolidin-1-yl)-6,7,8,9-tetrahydro-5H-benzo[7]annulen-2-yl)-1H-pyrazolo[3,4-b]pyridin-3-yl)benzamide] | 100 to 1000 | < 100
NC(=O)c1ccc(-c2n[nH]c3ncc(-c4ccc5c(c4)CCC(N4CCCC4)CC5)cc23)cc1C(F)(F)F (stereo not drawn) [Example 80, 4-(5-(7-(Pyrrolidin-1-yl)-6,7,8,9-tetrahydro-5H-benzo[7]annulen-2-yl)-1H-pyrazolo[3,4-b]pyridin-3-yl)-2-(trifluoromethyl)benzamide] | 100 to 1000 | < 100
NC(=O)c1ccc(-c2n[nH]c3ncc(-c4ccc5c(c4)CCC(N4CCCC4)CC5)cc23)cc1F (stereo not drawn) [Example 81, 2-Fluoro-4-(5-(7-(pyrrolidin-1-yl)-6,7,8,9-tetrahydro-5H-benzo[7]annulen-2-yl)-1H-pyrazolo[3,4-b]pyridin-3-yl)benzamide] | 100 to 1000 | < 100
Cc1cc(-c2n[nH]c3ncc(-c4ccc5c(c4)CC[C@@H](N4CCCC4)CC5)cc23)cc(F)c1C(N)=O [Example 83, (S)-2-Fluoro-6-methyl-4-(5-(7-(pyrrolidin-1-yl)-6,7,8,9-tetrahydro-5H-benzo[7]annulen-2-yl)-1H-pyrazolo[3,4-b]pyridin-3-yl)benzamide] | < 100 | < 100
NC(=O)c1ccc(-c2n[nH]c3ncc(-c4ccc5c(c4)CC[C@@H](N4CCCC4)CC5)cc23)cc1Cl [Example 84, (S)-2-Chloro-4-(5-(7-(pyrrolidin-1-yl)-6,7,8,9-tetrahydro-5H-benzo[7]annulen-2-yl)-1H-pyrazolo[3,4-b]pyridin-3-yl)benzamide] | < 100 | < 100
COC1CCN(C(=O)c2ccc(-c3n[nH]c4ncc(-c5ccc6c(c5)CCC(C)(N5CCC[C@H]5C)CC6)cc34)cc2)CC1 (stereo partly drawn) [Example 89, (4-Methoxypiperidin-1-yl)(4-(5-(7-methyl-7-((R)-2-methylpyrrolidin-1-yl)-6,7,8,9-tetrahydro-5H-benzo[7]annulen-2-yl)-1H-pyrazolo[3,4-b]pyridin-3-yl)phenyl)methanone] | 100 to 1000 | 100 to 1000
Cc1cc2c(cc1-c1cnc3[nH]nc(-c4ccc(C(C)(C)O)c(Cl)c4)c3c1)CCC(N1CCC[C@H]1C)CC2 (stereo partly drawn) [Example 90, 2-[2-Chloro-4-(5-{3-methyl-7-[(2R)-2-methylpyrrolidin-1-yl]-6,7,8,9-tetrahydro-5H-benzo[7]annulen-2-yl}-1H-pyrazolo[3,4-b]pyridin-3-yl)phenyl]propan-2-ol] | > 1000 | > 1000
NS(=O)(=O)c1ccc(-c2n[nH]c3ncc(-c4ccc5c(c4)CCN(C4CCCC4)CC5)cc23)cc1Cl [Example 92, 2-Chloro-4-(5-(3-cyclopentyl-2,3,4,5-tetrahydro-1H-benzo[d]azepin-7-yl)-1H-pyrazolo[3,4-b]pyridin-3-yl)benzenesulfonamide] | 100 to 1000 | 100 to 1000

The remaining lines, values ahead:

IC50 (human MER) [nM] | IC50 (human TYRO3) [nM] | SMILES
< 100 | < 100 | O=C(c1ccc(-c2n[nH]c3ncc(-c4ccc5c(c4)CC[C@@H](N4CCCC4)CC5)cc23)cc1Cl)N1CCNCC1 [Example 82, (S)-(2-Chloro-4-(5-(7-(pyrrolidin-1-yl)-6,7,8,9-tetrahydro-5H-benzo[7]annulen-2-yl)-1H-pyrazolo[3,4-b]pyridin-3-yl)phenyl)(piperazin-1-yl)methanone]
100 to 1000 | < 100 | O=C(c1ccc(-c2n[nH]c3ncc(-c4ccc5c(c4)CC[C@@H](N4CCCC4)CC5)cc23)cc1Cl)N1CCC(O)CC1 [Example 85, (S)-(2-Chloro-4-(5-(7-(pyrrolidin-1-yl)-6,7,8,9-tetrahydro-5H-benzo[7]annulen-2-yl)-1H-pyrazolo[3,4-b]pyridin-3-yl)phenyl)(4-hydroxypiperidin-1-yl)methanone]
100 to 1000 | 100 to 1000 | COc1cc(-c2n[nH]c3ncc(-c4ccc5c(c4)CCC(C)(N4CCC[C@H]4C)CC5)cc23)ccc1S(N)(=O)=O (stereo partly drawn) [Example 87, 2-Methoxy-4-(5-(7-methyl-7-((R)-2-methylpyrrolidin-1-yl)-6,7,8,9-tetrahydro-5H-benzo[7]annulen-2-yl)-1H-pyrazolo[3,4-b]pyridin-3-yl)benzenesulfonamide]
> 1000 | 100 to 1000 | C[C@@H]1CCCN1C1(C)CCc2ccc(-c3cnc4[nH]nc(-c5ccc(C(=O)NC6CCOCC6)cc5)c4c3)cc2CC1 (stereo partly drawn) [Example 88, 4-(5-(7-Methyl-7-((R)-2-methylpyrrolidin-1-yl)-6,7,8,9-tetrahydro-5H-benzo[7]annulen-2-yl)-1H-pyrazolo[3,4-b]pyridin-3-yl)-N-(tetrahydro-2H-pyran-4-yl)benzamide]
100 to 1000 | < 100 | NS(=O)(=O)c1ccc(-c2n[nH]c3ncc(-c4ccc5c(c4)CC[C@@H](N4CCCC4)CC5)cc23)cc1Cl [Example 91, (S)-2-Chloro-4-(5-(7-(pyrrolidin-1-yl)-6,7,8,9-tetrahydro-5H-benzo[7]annulen-2-yl)-1H-pyrazolo[3,4-b]pyridin-3-yl)benzenesulfonamide]
< 100 | < 100 | C[C@@H]1CCCN1C1(C)CCc2ccc(-c3cnc4[nH]nc(-c5ccc(S(N)(=O)=O)c(Cl)c5)c4c3)cc2CC1 (stereo partly drawn) [Example 93, 2-Chloro-4-(5-(7-methyl-7-((R)-2-methylpyrrolidin-1-yl)-6,7,8,9-tetrahydro-5H-benzo[7]annulen-2-yl)-1H-pyrazolo[3,4-b]pyridin-3-yl)benzenesulfonamide]

— patent US20240246967A1, “AXL COMPOUNDS” (ARCUS BIOSCIENCES, INC., priority 2021, published 2024)
